Reference: publication PMC4445981, “The glutamate transport inhibitor DL-Threo-β-Benzyloxyaspartic acid (DL-TBOA) differentially affects SN38- and oxaliplatin-induced death of drug-resistant colorectal cancer cells” (BMC Cancer, 2015)

Experiments:
[1] = system: parental and drug-resistant HCT116 and LoVo cell lines; assay: Nucleus (DAPI) counting of adherent cells, OPERA confocal; type: cell-based, human; settings: DL-TBOA 70 or 350 μM with SN38 or oxaliplatin, 48 h
Description: Cells were seeded in 96-well plates (Greiner Bio) one day prior to experiments. Cells were treated with chemotherapy and/or inhibitors as indicated and incubated for 48 h. Medium was aspirated, and cells were washed gently in ice cold PBS, fixed in 2 % paraformaldehyde, washed in PBS, and nuclei stained by 5 min incubation with DAPI. Plates were scanned using an OPERA high-throughput microscope (PerkinElmer). Nucleus counting was performed using proprietary OPERA software, based on 100 points per well, and cell counts from non-treated cells as controls.
Supplementary file 12885_2015_1405_MOESM2_ESM.tiff: Additional file 2: Figure S2. Nucleus counting after treatment of parental and drug-resistant HCT116 and LoVo cells with DL-TBOA. Parental and drug-resistant HCT116 and LoVo cell lines seeded in 96-well dishes were exposed to SN38 (0.1 or 0.8 μM) or oxaliplatin (0.8 or 20 μM), alone or in combination with 70 or 350 μM DL-TBOA as indicated, for 48 h. Cells were washed in PBS, fixed in 2 % paraformaldehyde and nuclei were stained with DAPI. The number of adherent cells was determined by automated counting using an OPERA confocal microscope. (A-B) Parental HCT116 cells. (C) SN38 resistant HCT116 cells. (D) Oxaliplatin-resistant HCT116 cells. (E-F) Parental LoVo cells. (G) SN38 resistant LoVo cells. (H) Oxaliplatin-resistant LoVo cells. […]

SLC1A1 = settings: depending on the system and experimental setup; cited from earlier work

## N[C@H](C(=O)O)[C@H](OCc1ccccc1)C(=O)O (racemic) [TBOA, DL-Threo-β-Benzyloxyaspartic acid]
[1]
  effect on number of surviving adherent cells after chemotherapy: opposite effects of DL-TBOA on SN38- and oxaliplatin-induced loss of viability are also evident
SLC1A1
  IC50 values in uptake assays: low micromolar range
